From PubChem BioAssay (NCI)
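All cell lines were grown in 96-well plates and treated with compound for 48 hours. GI50 is the concentration that inhibits growth by half. TGI denotes the concentration required for complete inhibition of growth.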

Experiments:
Experiment in all cases: DTP human tumour cell line panel, 48 h
LOX IMVI melanoma = test system: LOX IMVI melanoma
786-0 renal = test system: 786-0 renal
A498 renal = test system: A498 renal
MDA-MB-435 = test system: MDA-MB-435
TK-10 renal = test system: TK-10 renal
KM12 colon = test system: KM12 colon
SF-295 CNS = test system: SF-295 CNS
SF-539 CNS = test system: SF-539 CNS
K-562 leukemia = test system: K-562 leukemia
M14 melanoma = test system: M14 melanoma
UACC-62 melanoma = test system: UACC-62 melanoma
SF-268 CNS = test system: SF-268 CNS
SW-620 colon = test system: SW-620 colon
PC-3 prostate = test system: PC-3 prostate
T-47D breast = test system: T-47D breast
U251 CNS = test system: U251 CNS
CCRF-CEM leukemia = test system: CCRF-CEM leukemia
DU-145 prostate = test system: DU-145 prostate
SNB-75 CNS = test system: SNB-75 CNS
SNB-19 CNS = test system: SNB-19 CNS
NCI-H23 lung = test system: NCI-H23 lung
SK-OV-3 ovarian = test system: SK-OV-3 ovarian
IGROV1 ovarian = test system: IGROV1 ovarian
NCI-H522 lung = test system: NCI-H522 lung
EKVX NSCLC = test system: EKVX NSCLC
NCI-H226 lung = test system: NCI-H226 lung
MDA-MB-231 breast = test system: MDA-MB-231 breast
UACC-257 melanoma = test system: UACC-257 melanoma
SN12C renal = test system: SN12C renal
OVCAR-5 ovarian = test system: OVCAR-5 ovarian
HCC-2998 colon = test system: HCC-2998 colon
CAKI-1 renal = test system: CAKI-1 renal
HS 578T breast = test system: HS 578T breast
OVCAR-8 ovarian = test system: OVCAR-8 ovarian
SK-MEL-2 melanoma = test system: SK-MEL-2 melanoma
HOP-92 NSCLC = test system: HOP-92 NSCLC
HL-60(TB) leukemia = test system: HL-60(TB) leukemia
NCI-H460 lung = test system: NCI-H460 lung
MALME-3M melanoma = test system: MALME-3M melanoma
COLO 205 colon = test system: COLO 205 colon
RXF 393 renal = test system: RXF 393 renal
A549 NSCLC = test system: A549 NSCLC
SR leukemia = test system: SR leukemia
RPMI-8226 leukemia = test system: RPMI-8226 leukemia
SK-MEL-28 melanoma = test system: SK-MEL-28 melanoma
OVCAR-4 ovarian = test system: OVCAR-4 ovarian
OVCAR-3 ovarian = test system: OVCAR-3 ovarian
HT29 colon = test system: HT29 colon
SK-MEL-5 melanoma = test system: SK-MEL-5 melanoma
MCF7 breast = test system: MCF7 breast
ACHN renal = test system: ACHN renal
MOLT-4 leukemia = test system: MOLT-4 leukemia
BT-549 breast = test system: BT-549 breast
NCI/ADR-RES ovarian = test system: NCI/ADR-RES ovarian
UO-31 renal = test system: UO-31 renal
HCT-116 colon = test system: HCT-116 colon
HOP-62 NSCLC = test system: HOP-62 NSCLC
HCT-15 colon = test system: HCT-15 colon

`COC(=O)c1cc2oc(/C=C3/SC(=S)N(N)C3=O)cc2n1Cc1ccccc1` showed a GI50 (LOX IMVI melanoma) of 2.61 µM, a TGI (LOX IMVI melanoma) of 16 µM and a GI50 (786-0 renal) of 2.84 µM. The TGI (786-0 renal) was 8.53 µM, the GI50 (A498 renal) was 2.16 µM and the TGI (A498 renal) was 6.48 µM. For the same compound, the GI50 (MDA-MB-435) was 6.65 µM, the TGI (MDA-MB-435) was > 41.5 µM and the GI50 (TK-10 renal) was 3.2 µM. For the same compound, the TGI (TK-10 renal) was 11.8 µM, the GI50 (KM12 colon) was 6.05 µM and the TGI (KM12 colon) was > 29.7 µM. For the same compound, the GI50 (SF-295 CNS) was 1.76 µM, the TGI (SF-295 CNS) was 6.02 µM and the GI50 (SF-539 CNS) was 2.3 µM. For the same compound, the TGI (SF-539 CNS) was 6.3 µM, the GI50 (K-562 leukemia) was 2.08 µM and the TGI (K-562 leukemia) was > 21.7 µM. The GI50 (M14 melanoma) was 4.33 µM, the TGI (M14 melanoma) was 31.2 µM and the GI50 (UACC-62 melanoma) was 10.6 µM. For the same compound, the TGI (UACC-62 melanoma) was 36.1 µM, the GI50 (SF-268 CNS) was 2.22 µM and the TGI (SF-268 CNS) was 7.73 µM. The GI50 (SW-620 colon) was 13.4 µM, the TGI (SW-620 colon) was > 29.5 µM and the GI50 (PC-3 prostate) was 9.61 µM. The TGI (PC-3 prostate) was > 31.9 µM, the GI50 (T-47D breast) was 3.33 µM and the TGI (T-47D breast) was 10.1 µM. The GI50 (U251 CNS) was 3.97 µM, the TGI (U251 CNS) was 14 µM and the GI50 (CCRF-CEM leukemia) was > 100 µM. The TGI (CCRF-CEM leukemia) was > 100 µM, the GI50 (DU-145 prostate) was 3.59 µM and the TGI (DU-145 prostate) was 15.7 µM. For the same compound, the GI50 (SNB-75 CNS) was 0.887 µM, the TGI (SNB-75 CNS) was 11.3 µM and the GI50 (SNB-19 CNS) was 5.79 µM. It also gave a TGI (SNB-19 CNS) of 35.2 µM, a GI50 (NCI-H23 lung) of 4.46 µM and a TGI (NCI-H23 lung) of 21.2 µM. For the same compound, the GI50 (SK-OV-3 ovarian) was 4.25 µM, the TGI (SK-OV-3 ovarian) was 20 µM and the GI50 (IGROV1 ovarian) was 1.35 µM. The TGI (IGROV1 ovarian) was 4.82 µM, the GI50 (NCI-H522 lung) was 7.81 µM and the TGI (NCI-H522 lung) was 21.8 µM. The GI50 (EKVX NSCLC) was 7.17 µM, the TGI (EKVX NSCLC) was > 81.8 µM and the GI50 (NCI-H226 lung) was 13.5 µM. For the same compound, the TGI (NCI-H226 lung) was 26.8 µM, the GI50 (MDA-MB-231 breast) was 8.66 µM and the TGI (MDA-MB-231 breast) was 26 µM. The GI50 (UACC-257 melanoma) was 4.39 µM, the TGI (UACC-257 melanoma) was 21.5 µM and the GI50 (SN12C renal) was 12 µM. The TGI (SN12C renal) was > 43.3 µM, the GI50 (OVCAR-5 ovarian) was 4.65 µM and the TGI (OVCAR-5 ovarian) was 20.7 µM. For the same compound, the GI50 (HCC-2998 colon) was 3.89 µM, the TGI (HCC-2998 colon) was 19.1 µM and the GI50 (CAKI-1 renal) was 2.98 µM. For the same compound, the TGI (CAKI-1 renal) was 20.6 µM, the GI50 (HS 578T breast) was 0.699 µM and the TGI (HS 578T breast) was 3.5 µM. The GI50 (OVCAR-8 ovarian) was 3.24 µM, the TGI (OVCAR-8 ovarian) was 22.7 µM and the GI50 (SK-MEL-2 melanoma) was 6.82 µM. The TGI (SK-MEL-2 melanoma) was 18.7 µM, the GI50 (HOP-92 NSCLC) was 1.47 µM and the TGI (HOP-92 NSCLC) was 12.8 µM. The GI50 (HL-60(TB) leukemia) was > 15.7 µM, the TGI (HL-60(TB) leukemia) was > 100 µM and the GI50 (NCI-H460 lung) was 3.02 µM. The TGI (NCI-H460 lung) was 11.6 µM, the GI50 (MALME-3M melanoma) was 1.91 µM and the TGI (MALME-3M melanoma) was 17.7 µM. It also gave a GI50 (COLO 205 colon) of 5.42 µM, a TGI (COLO 205 colon) of 20.7 µM and a GI50 (RXF 393 renal) of 2.01 µM. It also gave a TGI (RXF 393 renal) of 12.2 µM, a GI50 (A549 NSCLC) of 5.12 µM and a TGI (A549 NSCLC) of 33.1 µM. For the same compound, the GI50 (SR leukemia) was > 21.4 µM, the TGI (SR leukemia) was > 100 µM and the GI50 (RPMI-8226 leukemia) was > 27.5 µM. The TGI (RPMI-8226 leukemia) was > 100 µM, the GI50 (SK-MEL-28 melanoma) was 7.48 µM and the TGI (SK-MEL-28 melanoma) was > 30.1 µM. For the same compound, the GI50 (OVCAR-4 ovarian) was 4.68 µM, the TGI (OVCAR-4 ovarian) was 42.8 µM and the GI50 (OVCAR-3 ovarian) was 2.17 µM. For the same compound, the TGI (OVCAR-3 ovarian) was 6.73 µM, the GI50 (HT29 colon) was 7.47 µM and the TGI (HT29 colon) was 19.4 µM. It also gave a GI50 (SK-MEL-5 melanoma) of 1.99 µM, a TGI (SK-MEL-5 melanoma) of 7.03 µM and a GI50 (MCF7 breast) of 1.5 µM. The TGI (MCF7 breast) was 6.93 µM, the GI50 (ACHN renal) was 7.08 µM and the TGI (ACHN renal) was 25.8 µM. For the same compound, the GI50 (MOLT-4 leukemia) was 4.23 µM, the TGI (MOLT-4 leukemia) was > 100 µM and the GI50 (BT-549 breast) was 3.5 µM. For the same compound, the TGI (BT-549 breast) was 26.7 µM, the GI50 (NCI/ADR-RES ovarian) was 4.61 µM and the TGI (NCI/ADR-RES ovarian) was 26.9 µM. It also gave a GI50 (UO-31 renal) of 3.6 µM, a TGI (UO-31 renal) of 10.6 µM and a GI50 (HCT-116 colon) of 5.73 µM. The TGI (HCT-116 colon) was 18.9 µM, the GI50 (HOP-62 NSCLC) was 6.59 µM and the TGI (HOP-62 NSCLC) was 25.6 µM. For the same compound, the GI50 (HCT-15 colon) was 7.65 µM and the TGI (HCT-15 colon) was > 29.9 µM.
